Active and inactive are the calls of the source. No cut-off for these calls is given here.
Assays:
Type in all cases: cell-based
iNKT [1] = assay: Effect on human iNKT MAD11 cells stimulation assessed as increase in IL-13 production pretreated with HeLa cells for overnight prior to iNKT MAD11 cells addition and measured after 24 hrs by ELISA
[2] = target: T1, Antigen-presenting glycoprotein CD1d (Homo sapiens) (UniProt P15813); assay: Binding affinity to human CD1d expressed in human HeLa cells assessed as increase in IL-13 production at 10 uM to 10^-4 uM incubated overnight prior to iNKT MAD11 cells addition to CD1d-compound mixture and measured after 24 hrs by ELISA
T1 sequence (whole entry): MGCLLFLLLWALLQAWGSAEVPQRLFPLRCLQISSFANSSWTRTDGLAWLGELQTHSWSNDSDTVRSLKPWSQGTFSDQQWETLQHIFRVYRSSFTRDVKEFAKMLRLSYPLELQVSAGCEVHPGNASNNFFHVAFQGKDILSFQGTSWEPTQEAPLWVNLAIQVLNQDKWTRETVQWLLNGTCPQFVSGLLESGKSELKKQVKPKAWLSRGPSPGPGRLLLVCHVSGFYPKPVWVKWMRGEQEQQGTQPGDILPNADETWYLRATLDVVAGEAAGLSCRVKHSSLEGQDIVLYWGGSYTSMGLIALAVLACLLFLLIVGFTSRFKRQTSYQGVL

iNKT [3] = assay: Effect on human iNKT MAD11 cells stimulation assessed as increase in IFNgamma production pretreated with HeLa cells for overnight prior to iNKT MAD11 cells addition and measured after 6 hrs by ELISA
[4] = target: T1, Antigen-presenting glycoprotein CD1d (Homo sapiens); assay: Binding affinity to human CD1d expressed in human HeLa cells assessed as increase in IFNgamma production at 10 uM to 10^-4 uM incubated overnight prior to iNKT MAD11 cells addition to CD1d-compound mixture and measured after 6 hrs by ELISA

Compound	Activity (iNKT [1])	Activity [2]	Activity (iNKT [3])	Activity [4]
CCCCCCCCCCCCCCCCCCCCCCCCCC(=O)N[C@@H](CO[C@H]1O[C@H](CO)[C@H](O)[C@H](O)[C@H]1O)C(F)(F)C(F)(F)CCCCCCCCCCCCCC	Non-Toxic	Active	Non-Toxic	Active
CCCCCCCCCCCCCCCCCCCCCCCCCC(=O)N[C@@H](CO[C@H]1O[C@H](CO)[C@H](O)[C@H](O)[C@H]1O)C(F)(F)[C@H](O)CCCCCCCCCCCCCC	Non-Toxic	Active	Non-Toxic	Active
CCCCCCCCCCCCCCCCCCCCCCCCCC(=O)N[C@@H](CO[C@H]1O[C@H](CO)[C@H](O)[C@H](O)[C@H]1O)C(F)(F)[C@@H](O)CCCCCCCCCCCCCC	Non-Toxic	Active	Non-Toxic	Active
CCCCCCCCCCCCCCCCCCCCCCCCCC(=O)N[C@@H](CO[C@H]1O[C@H](CO)[C@H](O)[C@H](O)[C@H]1O)[C@H](O)[C@H](O)CCCCCCCCCCCCCC [RGI-7000]	Non-Toxic	Active	Non-Toxic	Active

— ChEMBL document CHEMBL4364255, “3,4-Dideoxy-3,3,4,4-tetrafluoro- and 4-OH epimeric 3-deoxy-3,3-difluoro-α-GalCer analogues: Synthesis and biological evaluation on human iNKT cells stimulation” (Eur J Med Chem, 2019)
